Measured values published in patent EP4813991A1 (iLeadBMS Co., Ltd., priority 2023, dated 2025).
Where two headings read alike, the source gives them in different places.

Assays:
CDK12 [1] = target: T1, CDK12 (Homo sapiens, UniProt Q9NYV4); test: CDK12 kinase inhibitory activity assay (33P-ATP filter binding); assay type: biochemical
Summary of the method: (§1)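 Compound in 9 concentrations pre-incubated 20 min with kinase and substrate, then ^33P-γ-ATP added and reacted 120 min at room temperature. Phosphorylated substrate captured on filter, washed with 0.75 % phosphoric acid and counted; activity as % of DMSO control, IC50 fitted.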

CDK13 = CDK13 (Homo sapiens, UniProt Q14004); test: CDK13 kinase inhibitory activity assay (33P-ATP filter binding); assay type: biochemical
Chain of CDK13 (Q14004 whole entry, species assumed): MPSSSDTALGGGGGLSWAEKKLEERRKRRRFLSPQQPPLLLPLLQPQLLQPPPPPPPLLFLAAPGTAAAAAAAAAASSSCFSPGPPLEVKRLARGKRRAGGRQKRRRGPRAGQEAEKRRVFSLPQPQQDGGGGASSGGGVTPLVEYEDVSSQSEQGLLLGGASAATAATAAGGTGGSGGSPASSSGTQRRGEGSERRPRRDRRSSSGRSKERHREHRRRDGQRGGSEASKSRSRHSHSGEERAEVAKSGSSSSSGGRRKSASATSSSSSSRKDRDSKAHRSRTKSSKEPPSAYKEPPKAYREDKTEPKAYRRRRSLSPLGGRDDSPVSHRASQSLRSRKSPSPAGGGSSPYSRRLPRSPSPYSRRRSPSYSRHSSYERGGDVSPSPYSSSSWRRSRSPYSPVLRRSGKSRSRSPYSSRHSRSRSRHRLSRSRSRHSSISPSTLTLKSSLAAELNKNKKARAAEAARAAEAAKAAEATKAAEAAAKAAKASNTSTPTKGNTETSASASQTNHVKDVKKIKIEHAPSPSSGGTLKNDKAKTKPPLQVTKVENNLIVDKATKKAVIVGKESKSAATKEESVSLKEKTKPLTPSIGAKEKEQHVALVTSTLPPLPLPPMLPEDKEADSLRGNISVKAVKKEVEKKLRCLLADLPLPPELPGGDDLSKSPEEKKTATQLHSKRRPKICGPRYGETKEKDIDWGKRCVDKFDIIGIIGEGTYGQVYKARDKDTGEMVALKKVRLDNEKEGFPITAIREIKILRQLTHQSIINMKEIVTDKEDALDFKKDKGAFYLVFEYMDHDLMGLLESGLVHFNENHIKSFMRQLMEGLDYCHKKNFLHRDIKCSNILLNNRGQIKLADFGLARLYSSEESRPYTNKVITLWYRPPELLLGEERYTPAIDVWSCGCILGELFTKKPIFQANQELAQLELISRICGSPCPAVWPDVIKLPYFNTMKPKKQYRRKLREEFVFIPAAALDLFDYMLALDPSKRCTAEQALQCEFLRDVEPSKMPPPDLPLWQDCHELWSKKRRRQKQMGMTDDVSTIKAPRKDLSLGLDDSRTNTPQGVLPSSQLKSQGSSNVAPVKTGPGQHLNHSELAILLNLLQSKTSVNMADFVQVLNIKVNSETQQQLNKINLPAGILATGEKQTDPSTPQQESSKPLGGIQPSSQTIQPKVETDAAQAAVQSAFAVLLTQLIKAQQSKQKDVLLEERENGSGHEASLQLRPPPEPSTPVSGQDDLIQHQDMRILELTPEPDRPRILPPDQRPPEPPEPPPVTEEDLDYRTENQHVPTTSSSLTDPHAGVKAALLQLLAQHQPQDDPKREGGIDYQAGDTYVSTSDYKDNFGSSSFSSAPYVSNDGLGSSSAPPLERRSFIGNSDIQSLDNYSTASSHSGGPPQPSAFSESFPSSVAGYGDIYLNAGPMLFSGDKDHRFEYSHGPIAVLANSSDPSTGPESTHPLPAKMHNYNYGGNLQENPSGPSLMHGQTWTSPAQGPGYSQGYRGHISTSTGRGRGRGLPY
Chain of CDK13 (O75909 whole entry partner, species assumed): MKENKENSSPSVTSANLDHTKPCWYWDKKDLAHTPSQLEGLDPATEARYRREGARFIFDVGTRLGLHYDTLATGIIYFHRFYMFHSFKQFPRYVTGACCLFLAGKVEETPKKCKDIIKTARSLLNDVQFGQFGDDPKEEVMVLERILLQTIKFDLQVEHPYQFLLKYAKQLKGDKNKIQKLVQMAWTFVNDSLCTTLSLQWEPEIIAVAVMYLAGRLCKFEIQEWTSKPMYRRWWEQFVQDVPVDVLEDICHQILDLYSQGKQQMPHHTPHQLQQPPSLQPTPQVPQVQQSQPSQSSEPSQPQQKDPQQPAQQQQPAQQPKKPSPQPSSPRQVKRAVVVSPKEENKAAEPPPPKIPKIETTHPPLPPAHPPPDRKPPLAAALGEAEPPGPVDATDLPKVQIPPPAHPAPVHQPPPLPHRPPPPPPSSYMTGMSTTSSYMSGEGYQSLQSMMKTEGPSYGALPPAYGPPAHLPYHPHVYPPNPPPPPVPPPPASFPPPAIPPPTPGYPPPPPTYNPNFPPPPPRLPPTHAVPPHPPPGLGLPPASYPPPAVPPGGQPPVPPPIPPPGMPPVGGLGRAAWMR
Summary of the method: as §1

[2] = test system: MDA-MB-231 breast cancer cells; test: Proliferation inhibitory activity assay against MDA-MB-231 breast cancer cells; assay type: cell-based; settings: Homo sapiens, 72 hours, CellTiter Glo, relative IC50
Summary of the method: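 Cells grown in L-15 with 10% FBS at 37 °C, 0% CO2, then exposed next day to compounds at 9 concentrations (DMSO vehicle) for 72 h. Viability read by CellTiter Glo luminescence; relative IC50 from dose-response curve fit.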

CDK12 [3] = target: T1, CDK12; test: Cellular CDK12 inhibitory activity assay (Ser2 phosphorylation of RNA polymerase II subunit B1 CTD in MDA-MB-231 cells); assay type: cell-based; set-up: using MDA-MB-231 breast cancer cells; endogenous in cells; host or cells: MDA-MB-231; settings: MDA-MB-231 cells, 6 hours treatment; read-out: pRpbl CTD S2 IC50
Summary of the method: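 MDA-MB-231 cells in L-15 with 10 % FBS were treated with compound at 9 concentrations for 6 h at 37 °C, 0 % CO2. In-Cell Western read phospho-Ser2 and total RNA polymerase II CTD on a Li-COR Odyssey; IC50 from 4-parameter dose-response fit.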

[4] = kinase reaction 120 minutes, 33P-gamma-ATP, read-out: CDK12 IC50
[5] = kinase reaction 120 minutes, 33P-gamma-ATP, read-out: CDK13 IC50

T1 sequence (Q9NYV4 whole entry, species assumed): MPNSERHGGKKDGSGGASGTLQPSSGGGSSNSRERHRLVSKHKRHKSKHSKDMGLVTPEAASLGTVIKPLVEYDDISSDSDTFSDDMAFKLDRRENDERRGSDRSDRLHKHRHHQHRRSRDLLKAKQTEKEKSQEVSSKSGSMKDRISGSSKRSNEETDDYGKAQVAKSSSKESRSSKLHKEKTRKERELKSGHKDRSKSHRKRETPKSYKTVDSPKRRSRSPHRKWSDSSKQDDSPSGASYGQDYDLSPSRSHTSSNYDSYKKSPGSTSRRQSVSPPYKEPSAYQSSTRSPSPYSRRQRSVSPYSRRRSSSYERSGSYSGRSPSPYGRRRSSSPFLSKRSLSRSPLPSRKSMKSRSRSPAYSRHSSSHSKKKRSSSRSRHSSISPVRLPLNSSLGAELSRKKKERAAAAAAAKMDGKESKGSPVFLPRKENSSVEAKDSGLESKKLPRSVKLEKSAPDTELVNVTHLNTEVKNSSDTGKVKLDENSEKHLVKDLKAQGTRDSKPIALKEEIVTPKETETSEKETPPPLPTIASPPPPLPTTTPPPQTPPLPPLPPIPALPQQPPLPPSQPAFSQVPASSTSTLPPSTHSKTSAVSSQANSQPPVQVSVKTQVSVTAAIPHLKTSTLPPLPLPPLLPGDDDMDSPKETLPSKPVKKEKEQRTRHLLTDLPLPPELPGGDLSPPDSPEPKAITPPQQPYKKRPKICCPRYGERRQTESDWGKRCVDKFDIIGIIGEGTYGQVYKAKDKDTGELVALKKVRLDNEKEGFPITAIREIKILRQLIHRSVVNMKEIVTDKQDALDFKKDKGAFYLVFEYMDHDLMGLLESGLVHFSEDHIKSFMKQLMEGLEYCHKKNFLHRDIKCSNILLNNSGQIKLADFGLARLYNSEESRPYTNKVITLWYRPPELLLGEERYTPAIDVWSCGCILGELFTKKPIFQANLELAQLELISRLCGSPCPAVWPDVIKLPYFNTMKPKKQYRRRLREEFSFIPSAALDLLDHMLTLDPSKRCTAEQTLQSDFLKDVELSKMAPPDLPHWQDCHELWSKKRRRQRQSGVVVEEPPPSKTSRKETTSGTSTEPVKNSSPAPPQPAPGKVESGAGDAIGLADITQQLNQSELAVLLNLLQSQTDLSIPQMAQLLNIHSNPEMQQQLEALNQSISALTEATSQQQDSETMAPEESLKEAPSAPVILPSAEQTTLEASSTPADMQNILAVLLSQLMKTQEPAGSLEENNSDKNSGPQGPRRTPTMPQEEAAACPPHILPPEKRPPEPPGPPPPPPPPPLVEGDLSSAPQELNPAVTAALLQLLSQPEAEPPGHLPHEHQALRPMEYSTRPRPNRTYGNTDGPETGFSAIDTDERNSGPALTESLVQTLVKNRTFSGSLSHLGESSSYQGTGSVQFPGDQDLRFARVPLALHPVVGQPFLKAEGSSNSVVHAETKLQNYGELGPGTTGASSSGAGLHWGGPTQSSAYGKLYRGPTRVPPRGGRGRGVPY
T1 sequence (O75909 whole entry partner, species assumed): as the sequence (O75909 whole entry partner, species assumed) above

Structure (SMILES): Fc1ccc2nc(CNc3cc(N4CCOCC4)nn4c(C(F)(F)F)cnc34)[nH]c2c1F [Example 6, N-((6,7-difluoro-1H-benzo[d]imidazol-2-yl)methyl)-6-morpholino-3-(trifluoromethyl)imidazo[1,2-b]pyridazin-8-amine]
- IC50 (CDK12 [1]; [4]): < 0.1 µM
- IC50 (CDK13; [5]): < 0.1 µM
- IC50 [2]: ≤ 0.05 µM
- IC50 (CDK12 [3]): < 0.3 µM

Structure (SMILES): FC(F)(F)c1cnc2c(NCc3cn4ccccc4n3)cc(N3CCOCC3)nn12 [Example 82, N-(imidazo[1,2-a]pyridin-2-ylmethyl)-6-morpholino-3-(trifluoromethyl)imidazo[1,2-b]pyridazin-8-amine]
- IC50 (CDK12 [1]; [4]): < 0.1 µM
- IC50 (CDK13): < 0.1 µM
- IC50 [2]: 0.05 to 0.5 µM
- IC50 (CDK12 [3]): 0.3 to 3 µM

Structure (SMILES): CN1CC2CC(C1)N2c1cc(NCc2nc3cc(Cl)c(Cl)cc3[nH]2)c2ncc(C(F)(F)F)n2n1 [Example 100, N-((5,6-dichloro-1H-benzo[d]imidazol-2-yl)methyl)-6-(3-methyl-3,6-diazabicyclo[3.1.1]heptan-6-yl)-3-(trifluoromethyl)imidazo[1,2-b]pyridazin-8-amine]
- IC50 (CDK12 [1]; [4]): < 0.1 µM
- IC50 (CDK13; [5]): < 0.1 µM
- IC50 [2]: ≤ 0.05 µM
- IC50 (CDK12 [3]): < 0.3 µM

Structure (SMILES): Fc1cc2nc(CNc3cc(N4CCNCC4)nn4c(C(F)(F)F)cnc34)[nH]c2cc1F [Example 109]
- IC50 (CDK12 [1]; [4]): < 0.1 µM
- IC50 (CDK13; [5]): < 0.1 µM
- IC50 [2]: ≤ 0.05 µM
- IC50 (CDK12 [3]): < 0.3 µM

Structure (SMILES): N#CC1CN(c2cc(NCc3nc4ccc(Cl)c(Cl)c4[nH]3)c3ncc(C(F)(F)F)n3n2)C1 [Example 55, 1-(8-(((6,7-dichloro-1H-benzo[d]imidazol-2-yl)methyl)amino)-3-(trifluoromethyl)imidazo[1,2-b]pyridazin-6-yl)azetidine-3-carbonitrile]
- IC50 (CDK12 [1]; [4]): < 0.1 µM
- IC50 (CDK13; [5]): < 0.1 µM
- IC50 [2]: 0.05 to 0.5 µM
- IC50 (CDK12 [3]): 0.3 to 3 µM

Structure (SMILES): Fc1ccc2nc(CNc3cc(N4CC5CCC(C4)O5)nn4c(C(F)(F)F)cnc34)[nH]c2c1F [Example 9]
- IC50 (CDK12 [1]): < 0.1 µM
- IC50 (CDK13; [5]): < 0.1 µM
- IC50 [2]: ≤ 0.05 µM
- IC50 (CDK12 [3]): < 0.3 µM

Structure (SMILES): CC(C)(O)C1CN(c2cc(NCc3nc4cc(Cl)c(Cl)cc4[nH]3)c3ncc(C(F)(F)F)n3n2)C1 [Example 48, 2-(1-(8-(((5,6-dichloro-1H-benzo[d]imidazol-2-yl)methyl)amino)-3-(trifluoromethyl)imidazo[1,2-b]pyridazin-6-yl)azetidin-3-yl)propan-2-ol]
- IC50 (CDK12 [1]; [4]): > 0.5 µM
- IC50 (CDK13; [5]): 0.1 to 0.5 µM
- IC50 [2]: 0.05 to 0.5 µM
- IC50 (CDK12 [3]): < 0.3 µM

Structure (SMILES): CC(=O)N1CCN(c2cc(NCc3nc4cc(Cl)c(Cl)cc4[nH]3)c3ncc(C(F)(F)F)n3n2)CC1 [Example 51, 1-(4-(8-(((5,6-dichloro-1H-benzo[d]imidazol-2-yl)methyl)amino)-3-(trifluoromethyl)imidazo[1,2-b]pyridazin-6-yl)piperazin-1-yl)ethan-1-one]
- IC50 (CDK12 [1]; [4]): < 0.1 µM
- IC50 (CDK13; [5]): < 0.1 µM
- IC50 [2]: ≤ 0.05 µM
- IC50 (CDK12 [3]): < 0.3 µM

Structure (SMILES): Fc1ccc2nc(CNc3cc(N4CC5CCC(C4)N5)nn4c(C(F)(F)F)cnc34)[nH]c2c1F [Example 10, 6-(3,8-diazabicyclo[3.2.1]octan-3-yl)-N-((6,7-difluoro-1H-benzo[d]imidazol-2-yl)methyl)-3-(trifluoromethyl)imidazo[1,2-b]pyridazin-8-amine]
- IC50 (CDK12 [1]; [4]): < 0.1 µM
- IC50 (CDK13; [5]): < 0.1 µM
- IC50 [2]: ≤ 0.05 µM
- IC50 (CDK12 [3]): < 0.3 µM

Structure (SMILES): FC(F)(F)c1cnc2c(NCc3nc4cc(Cl)c(Cl)cc4[nH]3)cc(N3CC(NC4CC4)C3)nn12 [Example 58, 6-(3-(cyclopropylamino)azetidin-1-yl)-N-((5,6-dichloro-1H-benzo[d]imidazol-2-yl)methyl)-3-(trifluoromethyl)imidazo[1,2-b]pyridazin-8-amine]
- IC50 (CDK12 [1]; [4]): > 0.5 µM
- IC50 (CDK13; [5]): 0.1 to 0.5 µM
- IC50 [2]: ≤ 0.05 µM
- IC50 (CDK12 [3]): < 0.3 µM

Structure (SMILES): N[C@@H]1CCN(c2cc(NCc3nc4ccc(F)c(F)c4[nH]3)c3ncc(C(F)(F)F)n3n2)C1 [Example 37]
- IC50 (CDK12 [1]; [4]): < 0.1 µM
- IC50 (CDK13; [5]): < 0.1 µM
- IC50 [2]: ≤ 0.05 µM
- IC50 (CDK12 [3]): < 0.3 µM

Structure (SMILES): CN1CC2CCC(C1)N2c1cc(NCc2nc3cc(Cl)c(Cl)cc3[nH]2)c2ncc(C(F)(F)F)n2n1 [Example 96, N-((5,6-dichloro-1H-benzo[d]imidazol-2-yl)methyl)-6-(3-methyl-3,8-diazabicyclo[3.2.1]octan-8-yl)-3-(trifluoromethyl)imidazo[1,2-b]pyridazin-8-amine]
- IC50 (CDK12 [1]; [4]): 0.1 to 0.5 µM
- IC50 (CDK13; [5]): < 0.1 µM
- IC50 [2]: ≤ 0.05 µM
- IC50 (CDK12 [3]): < 0.3 µM

Structure (SMILES): O=C(CO)C1CCN(c2cc(NCc3nc4cc(Cl)c(Cl)cc4[nH]3)c3ncc(C(F)(F)F)n3n2)CC1 [Example 114, 1-(1-(8-(((5,6-dichloro-1H-benzo[d]imidazol-2-yl)methyl)amino)-3-(trifluoromethyl)imidazo[1,2-b]pyridazin-6-yl)piperidin-4-yl)-2-hydroxyethan-1-one]
- IC50 (CDK12 [1]; [4]): < 0.1 µM
- IC50 (CDK13): < 0.1 µM
- IC50 [2]: ≤ 0.05 µM
- IC50 (CDK12 [3]): < 0.3 µM

Structure (SMILES): O=C(CO)N1CCN(c2cc(NCc3nc4cc(Cl)c(Cl)cc4[nH]3)c3ncc(C(F)(F)F)n3n2)CC1 [Example 102, 1-(4-(8-(((5,6-dichloro-1H-benzo[d]imidazol-2-yl)methyl)amino)-3-(trifluoromethyl)imidazo[1,2-b]pyridazin-6-yl)piperazin-1-yl)-2-hydroxyethan-1-one]
- IC50 (CDK12 [1]; [4]): < 0.1 µM
- IC50 (CDK13; [5]): < 0.1 µM
- IC50 [2]: ≤ 0.05 µM
- IC50 (CDK12 [3]): < 0.3 µM

Structure (SMILES): Cc1cc2[nH]c(CNc3cc(N4CCOCC4)nn4c(C(F)(F)F)cnc34)nc2cc1Cl [Example 79, N-((5-chloro-6-methyl-1H-benzo[d]imidazol-2-yl)methyl)-6-morpholino-3-(trifluoromethyl)imidazo[1,2-b]pyridazin-8-amine]
- IC50 (CDK12 [1]; [4]): < 0.1 µM
- IC50 (CDK13; [5]): < 0.1 µM
- IC50 [2]: ≤ 0.05 µM
- IC50 (CDK12 [3]): < 0.3 µM

Structure (SMILES): FC(F)(F)c1cnc2c(NCc3cn4cccnc4n3)cc(N3CCOCC3)nn12 [Example 83, N-(imidazo[1,2-a]pyrimidin-2-ylmethyl)-6-morpholino-3-(trifluoromethyl)imidazo[1,2-b]pyridazin-8-amine]
- IC50 (CDK12 [1]; [4]): < 0.1 µM
- IC50 (CDK13): < 0.1 µM
- IC50 [2]: 0.05 to 0.5 µM
- IC50 (CDK12 [3]): 0.3 to 3 µM

Structure (SMILES): Cc1cnc2c(NCc3nc4ccc(F)c(F)c4[nH]3)cc(N3CCOCC3)nn12 [Example 4, N-((6,7-difluoro-1H-benzo[d]imidazol-2-yl)methyl)-3-methyl-6-morpholinoimidazo[1,2-b]pyridazin-8-amine]
- IC50 (CDK12 [1]; [4]): > 0.5 µM
- IC50 (CDK13; [5]): 0.1 to 0.5 µM
- IC50 [2]: > 0.5 µM
- IC50 (CDK12 [3]): > 3 µM

Structure (SMILES): FC(F)(F)c1cnc2c(NCc3nc4cc(Cl)c(Cl)cc4[nH]3)cc(N3C4CNCC3C4)nn12 [Example 99, 6-(3,6-diazabicyclo[3.1.1]heptan-6-yl)-N-((5,6-dichloro-1H-benzo[d]imidazol-2-yl)methyl)-3-(trifluoromethyl)imidazo[1,2-b]pyridazin-8-amine]
- IC50 (CDK12 [1]; [4]): 0.1 to 0.5 µM
- IC50 (CDK13; [5]): 0.1 to 0.5 µM
- IC50 [2]: ≤ 0.05 µM
- IC50 (CDK12 [3]): < 0.3 µM

Structure (SMILES): FC(F)(F)c1cnc2c(NCc3nc4cc(Cl)c(Cl)cc4[nH]3)cc(N3C4CCC3CNC4)nn12 [Example 95, 6-(3,8-diazabicyclo[3.2.1]octan-8-yl)-N-((5,6-dichloro-1H-benzo[d]imidazol-2-yl)methyl)-3-(trifluoromethyl)imidazo[1,2-b]pyridazin-8-amine]
- IC50 (CDK12 [1]; [4]): < 0.1 µM
- IC50 (CDK13; [5]): < 0.1 µM
- IC50 [2]: ≤ 0.05 µM
- IC50 (CDK12 [3]): < 0.3 µM

Structure (SMILES): N#CC1CCN(c2cc(NCc3nc4cc(Cl)c(Cl)cc4[nH]3)c3ncc(C(F)(F)F)n3n2)C1 (centres unmarked) [Example 49, 1-(8-(((5,6-dichloro-1H-benzo[d]imidazol-2-yl)methyl)amino)-3-(trifluoromethyl)imidazo[1,2-b]pyridazin-6-yl)pyrrolidine-3-carbonitrile]
- IC50 (CDK12 [1]; [4]): < 0.1 µM
- IC50 (CDK13; [5]): < 0.1 µM
- IC50 [2]: ≤ 0.05 µM
- IC50 (CDK12 [3]): < 0.3 µM

Structure (SMILES): FC(F)(F)c1cnc2c(NCc3nc4cc(Cl)c(Cl)cc4[nH]3)cc(N3CC4(CNC4)C3)nn12 [Example 45, N-((5,6-dichloro-1H-benzo[d]imidazol-2-yl)methyl)-6-(2,6-diazaspiro[3.3]heptan-2-yl)-3-(trifluoromethyl)imidazo[1,2-b]pyridazin-8-amine]
- IC50 (CDK12 [1]; [4]): 0.1 to 0.5 µM
- IC50 (CDK13; [5]): < 0.1 µM
- IC50 [2]: ≤ 0.05 µM
- IC50 (CDK12 [3]): < 0.3 µM

Structure (SMILES): NC(=O)N1CCN(c2cc(NCc3nc4cc(Cl)c(Cl)cc4[nH]3)c3ncc(C(F)(F)F)n3n2)CC1 [Example 66, 4-(8-(((5,6-dichloro-1H-benzo[d]imidazol-2-yl)methyl)amino)-3-(trifluoromethyl)imidazo[1,2-b]pyridazin-6-yl)piperazine-1-carboxamide]
- IC50 (CDK12 [1]; [4]): < 0.1 µM
- IC50 (CDK13): < 0.1 µM
- IC50 [2]: 0.05 to 0.5 µM
- IC50 (CDK12 [3]): < 0.3 µM

Structure (SMILES): OC1(C2CN(c3cc(NCc4nc5cc(Cl)c(Cl)cc5[nH]4)c4ncc(C(F)(F)F)n4n3)C2)CC1 [Example 50, 1-(1-(8-(((5,6-dichloro-1H-benzo[d]imidazol-2-yl)methyl)amino)-3-(trifluoromethyl)imidazo[1,2-b]pyridazin-6-yl)azetidin-3-yl)cyclopropan-1-ol]
- IC50 (CDK12 [1]; [4]): 0.1 to 0.5 µM
- IC50 (CDK13; [5]): 0.1 to 0.5 µM
- IC50 [2]: 0.05 to 0.5 µM
- IC50 (CDK12 [3]): 0.3 to 3 µM
